Results reported in patent publication US11478460B2, “Diaryl substituted 6,5-fused ring compounds as C5aR inhibitors” (CHEMOCENTRYX, INC., priority 2017, dated 2022).

Molecular target: C5aR (Homo sapiens (Human), UniProt P21730)
Test: Chemotaxis assay using U937 cells (C5aR mediated migration)
Format: cell-based
Conditions: read-out: Mig IC50
Procedure: U937 cells are a monocytic cell line which express C5aR, and are available from ATCC (VA). These cells were cultured as a suspension in RPMI-1640 medium supplemented with 2 mM L-glutamine, 1.5 g/L sodium bicarbonate, 4.5 g/L glucose, 10 mM HEPES, 1 mM sodium pyruvate, and 10% FBS. Cells were grown under 5% CO2/95% air, 100% humidity at 37° C. and subcultured twice weekly at 1:6 (cells were cultured at a density range of 1×10^5 to 2×10^6 cells/mL) and harvested at 1×10^6 cells/mL. Prior to assay, cells are treated overnight with 0.5 mM of cyclic AMP (Sigma, OH) and washed once prior to use. cAMP treated U937 cells can be used in C5aR ligand binding and functional assays.
Optionally, compounds may be further assayed for their ability to inhibit chemotaxis in cells. Chemotaxis assays are performed using 5 μm pore polycarbonate, polyvinylpyrrolidone-coated filters in 96-well chemotaxis chambers (Neuroprobe; Gaithersburg, Md.) using chemotaxis buffer (Hank's balanced salt solution (HBSS) and 1% FBS). C5aR ligands (i.e., C5a, R&D Systems; Minneapolis, Minn.) are use to evaluate compound mediated inhibition of C5aR mediated migration. Other chemokines (i.e., SDF-1α; R&D Systems; Minneapolis, Minn.) are used as specificity controls. The lower chamber is loaded with 29 μl of chemokine (i.e., 0.03 nM C5a) and varying amounts of compound; the top chamber contains 100,000 U937 or neutrophil cells in 20 μl. The chambers are incubated 1.5 hours at 37° C., and the number of cells in the lower chamber quantified either by direct cell counts in five high powered fields per well or by the CyQuant assay (Molecular Probes), a fluorescent dye method that measures nucleic acid content and microscopic observation.
The compounds in Table 1, below, were prepared using the methods described above. Characterization data is provided for each compound listed. Activity is provided as follows for the chemotaxis assay using U937 cells as described herein (Example 12): +, 500 nM<IC50; ++, 50 nM<IC50≤500 nM; +++, 5 nM<IC50≤50 nM; and ++++, IC50≤5 nM.

Sequence of C5aR (P21730 whole entry): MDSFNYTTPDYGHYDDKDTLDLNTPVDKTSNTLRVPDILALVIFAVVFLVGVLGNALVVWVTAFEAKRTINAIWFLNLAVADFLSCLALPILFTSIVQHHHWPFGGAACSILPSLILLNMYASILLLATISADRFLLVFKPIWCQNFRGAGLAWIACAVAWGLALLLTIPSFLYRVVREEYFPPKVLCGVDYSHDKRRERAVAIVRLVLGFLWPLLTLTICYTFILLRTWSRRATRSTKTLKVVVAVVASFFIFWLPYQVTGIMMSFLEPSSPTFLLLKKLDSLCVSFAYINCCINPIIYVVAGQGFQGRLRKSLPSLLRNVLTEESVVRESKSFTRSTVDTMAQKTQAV

Compound | IC50 [nM]
CCc1cccc(CC)c1-n1nc2c(c1-c1cc(F)c(NC(=O)CO)cc1F)CN(Cc1ccc(C(F)(F)F)cc1C(F)(F)F)CC2 [Example 1.002] | 50 to 500
CCc1cccc(CC)c1-n1nc2c(c1-c1cc(F)c(NC=O)cc1F)CN(Cc1ccc(C(F)(F)F)cc1C(F)(F)F)CC2 [Example 1.003] | ≤ 5
CCc1cccc(CC)c1-n1nc2c(c1-c1cc(F)c(N)cc1F)CN(Cc1ccc(C(F)(F)F)cc1C(F)(F)F)CC2 [Example 1.004] | 5 to 50
CCc1cccc(CC)c1-n1nc2c(c1-c1cc(F)c(NC(N)=O)cc1F)CN(C(=O)c1ccnn1C)C(C)(C)C2 [Example 1.005] | 5 to 50
CCc1cccc(CC)c1-n1nc2c(c1-c1cc(F)c(NC(C)=O)cc1F)CN(Cc1ccc(C(F)(F)F)cc1C(F)(F)F)CC2 [Example 1.006] | 5 to 50
CCc1cccc(CC)c1-n1nc2c(c1-c1cc(F)c(NC(N)=O)cc1F)CN(Cc1ccccc1Cl)C(C)(C)C2 [Example 1.007] | ≤ 5
CCc1cccc(CC)c1-n1nc2c(c1-c1cc(F)c(NC(N)=O)cc1F)CN(CCCC(F)(F)F)C(C)(C)C2 [Example 1.008] | ≤ 5
CCc1cccc(CC)c1-n1nc2c(c1-c1cc(F)c(NC(N)=O)cc1F)CN(CC)C(C)(C)C2 [Example 1.009] | 5 to 50
CCc1cccc(CC)c1-n1nc2c(c1-c1cc(F)c(NC(N)=O)cc1F)CN(CC1(C)COC1)C(C)(C)C2 [Example 1.010] | 5 to 50
CCc1cccc(CC)c1-n1nc2c(c1-c1cc(F)c(NC(N)=O)cc1F)CN(Cc1cc(C(F)(F)F)ccc1C(F)(F)F)C(C)(C)C2 [Example 1.011] | ≤ 5
CCc1cccc(CC)c1-n1nc2c(c1-c1cc(F)c(NC(N)=O)cc1F)CN(Cc1ccc(F)cc1C(F)(F)F)C(C)(C)C2 [Example 1.012] | ≤ 5
CCc1cccc(CC)c1-n1nc2c(c1-c1cc(F)c(NC(N)=O)cc1F)CN(c1ncc(Cl)cc1Cl)[C@@H](C)C2 [Example 1.013] | ≤ 5
CCc1cccc(CC)c1-n1nc2c(c1-c1cc(F)c(NC(N)=O)cc1F)CN(Cc1cccc(C(F)(F)F)c1)C(C)(C)C2 [Example 1.014] | ≤ 5
CCc1cccc(CC)c1-n1nc2c(c1-c1cc(F)c(NC(N)=O)cc1F)CN(Cc1ccc(Cl)cc1C(F)(F)F)[C@@H](C)C2 [Example 1.015] | ≤ 5
CCc1cccc(CC)c1-n1nc2c(c1-c1cc(F)c(NC(N)=O)cc1F)CN(Cc1ccc(C(F)(F)F)cc1C(F)(F)F)[C@@H](C)C2 [Example 1.016] | ≤ 5
CCc1cccc(CC)c1-n1nc2c(c1-c1cc(F)c(NC(N)=O)cc1F)CN(Cc1ccc(C(F)(F)F)cc1)C(C)(C)C2 [Example 1.017] | ≤ 5
CCc1cccc(CC)c1-n1nc2c(c1-c1cc(F)c(NC(N)=O)cc1F)CN(c1ncc(Cl)cc1Cl)[C@H](C)C2 [Example 1.018] | ≤ 5
CCc1cccc(CC)c1-n1nc2c(c1-c1cc(F)c(NC(N)=O)cc1F)CN(CC1CCOCC1)CC2 [Example 1.019] | 5 to 50

Compound | IC50 [nM]
CCc1cccc(CC)c1-n1nc2c(c1-c1cc(F)c(NC(N)=O)cc1F)CN(Cc1ccc(Cl)cc1C(F)(F)F)[C@H](C)C2 [Example 1.021] | ≤ 5
CCc1cccc(CC)c1-n1nc2c(c1-c1cc(F)c(NC(N)=O)cc1F)CN(Cc1ccc(C(F)(F)F)cc1C(F)(F)F)[C@H](C)C2 [Example 1.022] | ≤ 5
CCc1cccc(CC)c1-n1nc2c(c1-c1cc(F)c(NC(N)=O)cc1F)CN(Cc1cc(Cl)ccc1Cl)C(C)(C)C2 [Example 1.023] | ≤ 5
CCc1cccc(CC)c1-n1nc2c(c1-c1cc(F)c(NC(N)=O)cc1F)CN(Cc1ccc(Cl)cc1Cl)C(C)(C)C2 [Example 1.024] | ≤ 5
CCc1cccc(CC)c1-n1nc2c(c1-c1cc(F)c(NC(N)=O)cc1F)CN(C(=O)OC(C)(C)C)[C@H](C)C2 [Example 1.025] | ≤ 5
CCc1cccc(CC)c1-n1nc2c(c1-c1cc(F)c(NC(N)=O)cc1F)CN(Cc1ccccc1C(F)(F)F)C(C)(C)C2 [Example 1.027] | ≤ 5
CCc1cccc(CC)c1-n1nc2c(c1-c1cc(F)c(NC(N)=O)cc1F)CN(C(=O)C1CCOCC1)C(C)(C)C2 [Example 1.029] | 5 to 50
CCc1cccc(CC)c1-n1nc2c(c1-c1cc(F)c(NC(N)=O)cc1F)CN(Cc1cc(Cl)ccc1C(F)(F)F)C(C)(C)C2 [Example 1.031] | ≤ 5
CCc1cccc(CC)c1-n1nc2c(c1-c1cc(F)c(NC(N)=O)cc1F)CN(C(=O)C(C)C)C(C)(C)C2 [Example 1.032] | ≤ 5
Cc1cccc(C)c1-n1nc2c(c1-c1cc(F)c(NC(N)=O)cc1F)CN(Cc1ccc(C(F)(F)F)cc1C(F)(F)F)C(C)(C)C2 [Example 1.033] | ≤ 5
CCc1cccc(CC)c1-n1nc2c(c1-c1cc(F)c(NC(N)=O)cc1F)CN(Cc1ccc(C(F)(F)F)cc1Cl)C(C)(C)C2 [Example 1.035] | ≤ 5
CCc1cccc(CC)c1-n1nc2c(c1-c1cc(F)c(NC(N)=O)cc1F)CN(CC1CCOCC1)C(C)(C)C2 [Example 1.040] | ≤ 5
CCc1cccc(CC)c1-n1nc2c(c1-c1cc(F)c(NC(N)=O)cc1OC)CN(Cc1ccc(C(F)(F)F)cc1C(F)(F)F)CC2 [Example 1.042] | ≤ 5
CCc1cccc(CC)c1-n1nc2c(c1-c1cc(F)c(NC(N)=O)cc1F)CN(CC1CCCC1)C(C)(C)C2 [Example 1.043] | ≤ 5
CCc1cccc(CC)c1-n1nc2c(c1-c1cc(F)c(NC(N)=O)cc1F)CN(Cc1ccc(C(F)(F)F)cc1C)C(C)(C)C2 [Example 1.047] | ≤ 5
CCc1cccc(CC)c1-n1nc2c(c1-c1cc(F)c(NC(N)=O)cc1F)CN(Cc1ccc(C(F)(F)F)cc1F)C(C)(C)C2 [Example 1.050] | ≤ 5
CCc1cccc(CC)c1-n1nc2c(c1-c1cc(F)c(NC(N)=O)cc1F)CN(Cc1ccc(Cl)cc1C(F)(F)F)C(C)(C)C2 [Example 1.052] | ≤ 5

Results, then the molecule that gave them:

IC50 [nM] | Compound
≤ 5 | CCc1cccc(CC)c1-n1nc2c(c1-c1cc(F)c(NC(N)=O)cc1F)CN(CC(C)(C)C(F)(F)F)CC2 [Example 1.001]
5 to 50 | CCc1cccc(CC)c1-n1nc2c(c1-c1cc(F)c(NC(N)=O)cc1F)CN(CC1CCOC1)CC2 (stereo not drawn) [Example 1.020]
5 to 50 | CCc1cccc(CC)c1-n1nc2c(c1-c1cc(F)c(NC(N)=O)cc1F)CN(Cc1cnc(C)cc1C)CC2 [Example 1.026]
≤ 5 | CCc1cccc(CC)c1-n1nc2c(c1-c1cc(F)c(NC(N)=O)cc1F)CN(Cc1cc(F)ccc1C(F)(F)F)CC2 [Example 1.028]
5 to 50 | CCc1cccc(CC)c1-n1nc2c(c1-c1cc(F)c(NC(N)=O)cc1F)CN(C(=O)C(C)C)CC2 [Example 1.030]
≤ 5 | CCc1cccc(CC)c1-n1nc2c(c1-c1cc(F)c(NC(N)=O)cc1F)CN(Cc1ccc(C)cc1C(F)(F)F)CC2 [Example 1.034]
≤ 5 | CCc1cccc(CC)c1-n1nc2c(c1-c1cc(F)c(NC(N)=O)cc1F)CN(Cc1cc(C(F)(F)F)ccc1C)CC2 [Example 1.036]
≤ 5 | CCc1cccc(CC)c1-n1nc2c(c1-c1cc(F)c(NC(N)=O)cc1F)CN(Cc1cc(C(F)(F)F)ccc1OC)CC2 [Example 1.037]
≤ 5 | CCc1cccc(CC)c1-n1nc2c(c1-c1cc(F)c(NC(N)=O)cc1F)CN(Cc1cc(C(F)(F)F)ccc1Cl)CC2 [Example 1.038]
≤ 5 | CCc1cccc(CC)c1-n1nc2c(c1-c1cc(F)c(NC(N)=O)cc1F)CN(Cc1cc(C(F)(F)F)ccc1F)CC2 [Example 1.039]
> 500 | CCc1cccc(CC)c1-n1nc2c(c1-c1cc(F)c(NC(N)=O)cc1F)CN(Cc1cccn(C)c1=O)CC2 [Example 1.041]
≤ 5 | CCc1cccc(CC)c1-n1nc2c(c1-c1cc(F)c(NC(N)=O)cc1F)CN(Cc1ccc(F)cc1C(F)(F)F)CC2 [Example 1.044]
≤ 5 | CCc1cccc(CC)c1-n1nc2c(c1-c1cc(F)c(NC(N)=O)cc1F)CN(Cc1cc(OC)ccc1C(F)(F)F)CC2 [Example 1.045]
≤ 5 | CCc1cccc(CC)c1-n1nc2c(c1-c1cc(F)c(NC(N)=O)cc1F)CN(Cc1cc(F)ccc1F)CC2 [Example 1.046]
≤ 5 | CCc1cccc(CC)c1-n1nc2c(c1-c1cc(F)c(NC(N)=O)cc1F)CN(Cc1ccc(C#N)cc1C(F)(F)F)CC2 [Example 1.048]
≤ 5 | CCc1cccc(CC)c1-n1nc2c(c1-c1cc(F)c(NC(N)=O)cc1F)CN(Cc1ccccc1)CC2 [Example 1.051]
≤ 5 | CCc1cccc(CC)c1-n1nc2c(c1-c1cc(F)c(NC(N)=O)cc1F)CN(Cc1ccc(OC)cc1C(F)(F)F)CC2 [Example 1.053]
≤ 5 | CCc1cccc(CC)c1-n1nc2c(c1-c1cc(F)c(NC(N)=O)cc1F)CN(Cc1ccc(C(C)(C)C)cc1)CC2 [Example 1.054]
≤ 5 | CCc1cccc(CC)c1-n1nc2c(c1-c1cc(F)c(NC(N)=O)cc1F)CN(Cc1cc(C(F)(F)F)ccc1C(F)(F)F)CC2 [Example 1.055]
